Patent publication US9278134B2, “Dual functioning ionic liquids and salts thereof” (priority 2008, dated 2016)
Read-outs that look alike come from different tables or passages of the source.

How the values were obtained:
[1] = Thermocleavage of ionic liquid immobilized fragrance by TGA; type: physicochemical; conditions: TGA (FIG. 6)
[2] = Thermal decomposition onset (T5% onset) by TGA
[3] = Viscosity of propantheline p-toluenesulfonate (PtTos)/water composites; type: physicochemical; conditions: * instrument limit
Description: (§1) Viscosity, conductivity and ΔW values for various propantheline p-toluenesulfonate (PtTos)/water composites.

[4] = Conductivity of propantheline p-toluenesulfonate (PtTos)/water composites; type: physicochemical
Description: as §1

[5] = Walden plot: ΔW / degree of ionicity; type: physicochemical; conditions: for degree of ionicity (ionized): estimated from the Walden plot (FIG. 7)
Description: Many examples of liquid organic salts are far from fully ionized. Instead, they form ion pairs and aggregates of ions in the liquid state and are better described as Liquid Ion Pairs than “Ionic Liquids”. The distinction between these states can be made on the basis of the behavior of the transport property data when plotted in a Walden plot. The Walden plot is a graph of log equivalent conductivity (corrected for molar volume) vs. log fluidity and thus may be used to estimate the degree of association cations and anions (as correlated motion of cation and anion clusters). […] Liquid Ion Pairs lie beyond this region, i.e., more than one order of magnitude away from the Ideal line. Such liquid salts are less than 10% ionized. Examples of such liquid salts of therapeutic ions include propanthaline tosylate which is about 1% ionized, as estimated from the Walden plot (FIG. 7).
With addition of 25 weight % water, ΔW value decreased. This is true for all of the propantheline p-toluenesulfonate/water systems studied.

[6] = TGA/DSC, 25° C. to 600° C. with 5° C./min under nitrogen, lidocaine salicylate co-ionic liquids

Compound: CC(C)=CCC/C(C)=C/COC(=O)Cn1cc[n+](C)c1 [Example 44, (E)-1-(2-(3,7-dimethylocta-2,6-dienyloxy)-2-oxoethyl)-3-methyl-1H-imidazol-3-ium Docusate]
- Thermocleavage, first decomposition step (release of geraniol) [1]: Mass loss of the first decomposition step obtained corresponds to mass percentage of Geraniol [1] in the prodrug [4]
- T5%onset [2]: 170 °C

Compound: CC(C)[N+](C)(CCOC(=O)C1c2ccccc2Oc2ccccc21)C(C)C [PtTos pure, Propantheline p-Toluenesulfonate]
- Viscosity (mPa · s) ± 1% [3]: >2000* mPa · s
- Conductivity (S cm^−1) [4]: 5.41 × 10^−7 S cm^−1
- distance below the reference line in the Walden plot ([5]; FIG. 7): 2 log units
- ΔW (distance form the ideal line) ([5]; Walden plot, PtTos/water composites): 2.0
- degree of ionicity (ionized) [5]: approximately 1%
- degree of ionicity (ionized) ([5]; listed as propanthaline tosylate): about 1%

Compound: Cetylpyridinium Salicylate-salicylic Acid [CetPy:Sal 1:3]
- T5%onset ([2]; TGA/DSC, 25° C. to 600° C. with 5° C./min under nitrogen, cetylpyridinium salicylate-salicylic acid co-ionic liquids): 162 °C

Compound: Choline Docusate [Example 67]
- T5%onset [2]: 189 °C

Compound: Ephedrinium Clofibrate [Eph:Clofib 1:2]
- Tonset 5% ([2]; TGA/DSC, 25° C. to 600° C. with 5° C./min under nitrogen, ephedrinium clofibrate co-ionic liquids prepared by melting): 182 °C

Compound: Lidocaine Salicylates [Lid:Sal 1.5:1]
- Tonset 5% [2, 6]: 169 °C

Compound: Lidocaine Salicylates [Lid:Sal 1:1.5]
- Tonset 5% [2, 6]: 142 °C

Compound: Lidocaine Salicylates [Lid:Sal 1:2.5]
- Tonset 5% [2, 6]: 132 °C

Compound: Lidocaine Salicylates [Lid:Sal 1:2]
- Tonset 5% [2, 6]: 138 °C

Compound: Lidocaine Salicylates [Lid:Sal 1:3]
- Tonset 5% [2, 6]: 128 °C

Compound: Lidocaine Salicylates [Lid:Sal 2.5:1]
- Tonset 5% [2, 6]: 137 °C

Compound: Lidocaine Salicylates [Lid:Sal 2:1]
- Tonset 5% [2, 6]: 154 °C

Compound: Lidocaine Salicylates [Lid:Sal 3:1]
- Tonset 5% [2, 6]: 161 °C

Compound: Triethanolammonium Ibuprofenate [Example 64]
- T5%onset [2]: 163 °C
